Structures can show the parent of a compound that is named as a salt. Where two headings read alike, the source gives them in different places.

One may read the Ki as the dissociation constant of the complex between target and ligand, obtained from inhibition or displacement.

One assay relates to α-adrenergic. The note with it: hydrochloride; literature; cited from earlier work.
The next assay deals with 5-HT1 receptor. Nature of the assay: Affinity for the 5-HT1 receptor; receptor-binding studies using calf hippocampus membrane preparations, 3H-serotonin. The note with it: calf hippocampus membranes. The text has this: Affinity for the 5-HT1 receptor
The high affinity of the compounds according to the invention for 5-hydroxytryptamine receptors of subtype 1 is shown in Table 1 by way of example. The values shown are data which have been determined from receptor-binding studies using calf hippocampus membrane preparations. To this end, ^3 H-serotonin was used as radioactively labelled ligand.

Another assay deals with dopamine D2 receptor (Rattus norvegicus, UniProt P61169). Nature of the assay: Dopamine D2 receptor test; binding of 3H-sulpiride to membranes from the striatum of rats.
dopamine D2 receptor, sequence (P61169 whole entry): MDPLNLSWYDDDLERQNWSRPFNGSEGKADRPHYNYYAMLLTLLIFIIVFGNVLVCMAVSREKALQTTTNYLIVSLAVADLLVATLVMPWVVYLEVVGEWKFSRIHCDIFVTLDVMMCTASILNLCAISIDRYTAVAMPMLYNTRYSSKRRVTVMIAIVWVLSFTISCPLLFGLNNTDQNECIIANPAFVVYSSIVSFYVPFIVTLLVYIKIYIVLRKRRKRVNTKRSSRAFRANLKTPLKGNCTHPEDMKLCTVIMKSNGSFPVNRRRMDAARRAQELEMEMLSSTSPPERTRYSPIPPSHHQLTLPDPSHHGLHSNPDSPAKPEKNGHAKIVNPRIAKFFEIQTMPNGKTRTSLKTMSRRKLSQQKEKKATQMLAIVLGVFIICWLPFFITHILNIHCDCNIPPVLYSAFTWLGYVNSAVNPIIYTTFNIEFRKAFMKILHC
Another assay deals with T1, 5-HT1A receptor (Bos taurus, UniProt F6Q2H9).
T1 construct: 5-HT1A receptors in calf hippocampus membranes; from tissue; host or cells: calf hippocampus membranes
T1 sequence (F6Q2H9 1-422): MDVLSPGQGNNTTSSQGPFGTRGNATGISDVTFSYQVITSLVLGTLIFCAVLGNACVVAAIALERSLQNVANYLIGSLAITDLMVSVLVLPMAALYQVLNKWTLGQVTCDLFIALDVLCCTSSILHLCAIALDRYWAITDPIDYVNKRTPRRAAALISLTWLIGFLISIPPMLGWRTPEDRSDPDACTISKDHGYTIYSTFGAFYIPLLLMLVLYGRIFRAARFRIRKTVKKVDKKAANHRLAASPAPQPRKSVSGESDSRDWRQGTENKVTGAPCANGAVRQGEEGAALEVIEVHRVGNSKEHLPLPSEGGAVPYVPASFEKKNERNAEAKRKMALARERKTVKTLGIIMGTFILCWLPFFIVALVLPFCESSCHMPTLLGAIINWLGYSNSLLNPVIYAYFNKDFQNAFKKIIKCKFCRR
Nature of the assay: Affinity for the 5-HT1A receptor; binding of 3H-ipsapiron to 5-HT1A receptors in calf hippocampus membranes. The method, then:
Affinity for the 5-HT1A receptor
[W. U. Dompert et al., Naunyn-Schmiedeberg's Arch. Pharmacol. (1985), 328, 467-470].
In this test the binding of ^3 H-ipsapiron to 5-HT1A receptors in calf hippocampus membranes is measured.

Setting [1] is: 3H-sulpiride, rat striatum membranes, Ki calculated from IC50, read-out: Ki.

Description for dopamine D2 receptor: In this test the binding of the selective D2 receptor antagonist ^3 H-sulpiride to membranes from the striatum of rats is measured. Compounds which bind to dopamine D2 receptors inhibit the binding of ^3 H-sulpiride in a concentration-dependent manner. IC50 values are determined from the displacement curves and the inhibition constants Ki calculated from these values.

Turning to `c1ccc2c(c1)CCC(CN1CCCCC1)O2` (centres unmarked) [1-[(3,4-dihydro-2H-1-benzopyran-2-yl)methyl]piperidine], the α-adrenergic-blocking effect entry in the assay on α-adrenergic is given as “α-adrenergic-blocking effect”.

Turning to `COc1cccc2c1OC(CN1CCC(CN3C(=O)c4ccccc4C3=O)CC1)CC2` (centres unmarked) [Example 2, 2-[4-(Isoindol-1,3-dion-2-yl)methyl-piperidin-1-yl)methyl-8-methoxychroman oxalate hydrate], the Ki on 5-HT1 receptor was 3 nM; on dopamine D2 receptor (setting [1]), 1.8 nM.

Consider `O=c1[nH]c2ccccc2n1C1CCN(CC2CCc3ccccc3O2)CC1` (centres unmarked) [Example 3, 1-(Chroman-2-yl-methyl)-4-(2-oxo-1-benzimidazolyl)-piperidine], for which the Ki at dopamine D2 receptor came to 0.4 nM.

Consider `COc1cccc2c1OC(CN1CCC(n3c(=O)[nH]c4ccccc43)CC1)CC2` (centres unmarked) [Example 4], for which the affinity on 5-HT1 receptor corresponds to a Ki of 2 nM.

For the compound `O=c1[nH]c2ccccc2n1C1=CCN(CC2CCc3ccccc3O2)CC1` (centres unmarked) [Example 5], on 5-HT1A receptor, the Ki came to 1.5 nM.

As for `COc1cccc2c1OC(CN1CC=C(n3c(=O)[nH]c4ccccc43)CC1)CC2` (centres unmarked) [Example 6], the Ki at 5-HT1A receptor was 1.4 nM; at dopamine D2 receptor (setting [1]), 2.3 nM.

These data come from US5696136A, “Method of treating psychosis using azaheterocyclylmethyl” (Bayer Aktiengesellschaft, priority 1991, dated 1997).
